Assays:
[1] = Accelerated stability of ON 01910.Na in formulations containing PEG at 75° C. (HPLC); assay type: physicochemical; settings: for % ON 01910.Na Remaining: 75° C.
Method: (§1) The effect of dielectric constant on the stabilization of ON 01910.Na, for example, was investigated, for example, by preparing formulations containing propylene glycol and PEG 400. The accelerated stability studies were preformed at 75 and 90° C. […] The following tables summarizes the results:
(§2) The samples were evaluated by an HPLC assay utilizing a Phenomenex Luna C-18, 5 micron (4.6 mm×250 mm) reverse phase column at ambient conditions. The mobile phase consisted of 60%-0.1% Trifluoroacetic Acid in water: 40% Acetonitrile. The flow rate was set to 2.0 ml/minute and the eluant was monitored at 230 nm

[2] = tested on: patients with advanced solid tumors; assay: Phase I dose escalation study by 2-hour intravenous infusion; assay type: in vivo; settings: iv 2 hour infusion, twice per week for 3 weeks, ten days off; no grade 2 or worse toxicities
Method: Safety and efficacy of this formulation, for example, is tested in a Phase I clinical study, at The Johns Hopkins Sidney Kimmel Cancer Center, Baltimore, Md., i.e., “Phase I Dose Escalation Study Of ON 01910.Na By 2-Hour Intravenous Infusion In Patients With Advanced Solid Tumors”. U.S. FDA IND #66,780. The objectives of this study include an identification of a maximum tolerated dose (MTD) and a recommended dose for further clinical studies. A further object of the study is to establish a safety profile, i.e., to observe any toxicities. The patients in this study have advanced solid tumors that have failed conventional treatments, or for which no approved therapy exists. An object of the study is particularly to observe efficacy (anti-cancer effects).
The patients are administered the preferred formulation described herein of the ON 01910.Na drug (properly diluted in intravenous solution) over a two hour period, twice per week, for three weeks. The patients are subsequently observed for […], to constitute a four week treatment cycle.
This study started with a single patient at the first starting dose level of 80 mg per patient. If there is no grade 2 or worse drug-related toxicity (side effects) observed in the first four week cycle, then another patient may be dosed at the next higher dose level. The first patient was dosed at 80 mg per patient on Aug. 3, 2004. […]

[3] = Accelerated stability in formulations containing PEG or PG and pH 10 buffer at 90° C. (HPLC); assay type: physicochemical; settings: for % ON 01910.Na Remaining: 90° C.
Method: as §1, §2

[4] = Infusion bag compatibility study; assay type: physicochemical; settings: 75 mg/ml in PEG-400, bags containing 0.45% NaCl and 0.9% NaCl solutions
Method: This example summarizes the results of a compatibility study of ON 01910.Na drug product (75 mg/ml in PEG-400) in IV Infusion Bags and Sets containing 0.45% NaCl and 0.9% NaCl solutions. The study consisted of preparing solutions of 80 mg of the ON 01910.Na in 250 ml 0.9% NaCl, and 800 mg of ON01910.Na in 250 ml 0.45% NaCl, and storing them in IV infusion bags for over 24 hours to determine if there is any product loss or instability. The solutions were also passed through infusion sets at a rate of approximately 2 ml per minute for 120 minutes and monitored for product loss or instability.
The samples were analyzed by HPLC for Assay, % Recovery, and Impurities. Appearance, Osmolarity, and pH of the solutions were also monitored throughout the study. […]
Five ml of solution were removed from each bag for analysis at the following time points: T=0, 1 hr, 2 hr, 4 hr, 8 hr, and 24.5 hr. Appearance, Assay, % Impurities, % Recovery, Osmolarity, and pH were analyzed at each time points.
Results are shown in Tables 10-13. % Recovery is the percentage of drug substance as compared to the calculated amount, while % T0 is defined as the percentage of drug substance as compared to drug substance at the initial timepoint. […]

[5] = Solubility of the Na salt
[6] = Long term stability of 75 mg/mL ON 01910.Na in 100% PEG-400 (HPLC); assay type: physicochemical; settings: 100% PEG-400 for clinical use
Method: ON 01910.Na IV solution was manufactured at a concentration of 75 mg/mL in 100% PEG-400. The finished product consisted of 3 mL of drug product aseptically filled into
presterilized 5 mL vials. The manufacturing was in compliance with current Good Manufacturing Practices regulations.
Visual Inspection (a) The zero-time data point is the same as the release data generated from the manufactured clinical lot. Analytical Methods: (a) HPLC—Chromatography is performed using a Phenomenex Luna C-18 (2), 5 micron
(4.6 mm×250 mm, PN 00G-4252-E0) column at ambient conditions. The mobile phase used is 60%-0.1% trifluoroacetic acid in water; 40% acetonitrile. The flow rate is set at 2.0 ml/min Injection volume is 50 μL. Detection is accomplished by means of a UV/VIS detector at 230, 254, and 320 nm. Instrument control and data acquisition is facilitated using a Waters Millennium (V 2.15) software package. The external calibration is obtained using ON 01910.Na standard solutions prepared in 50:50 acetonitrile:water. This analytical method was validated.

COc1cc(OC)c(/C=C/S(=O)(=O)Cc2ccc(OC)c(NCC(=O)[O-])c2)c(OC)c1.[Na+] [ON 01910.Na, (E)-2,4,6-trimethoxystyryl-3-carboxymethylamino-4-methoxybenzylsulfone]
% ON 01910.Na Remaining ([1]; 0% PEG, 0 D): 100.00% | % ON 01910.Na Remaining ([1]; 0% PEG, 0.25 D): 86.47% | % ON 01910.Na Remaining ([1]; 0% PEG, 2 D): 11.20% | % ON 01910.Na Remaining ([1]; 0% PEG, 7 D): 0.47% | % ON 01910.Na Remaining ([1]; 0% PEG, 14 D): 0.47% | % ON 01910.Na Remaining ([1]; 0% PEG, 28 D): 0.02% | % ON 01910.Na Remaining ([1]; 25% PEG, 0 D): 100.00% | % ON 01910.Na Remaining ([1]; 25% PEG, 0.25 D): 98.12% | % ON 01910.Na Remaining ([1]; 25% PEG, 2 D): 66.89% | % ON 01910.Na Remaining ([1]; 25% PEG, 7 D): 42.13% | % ON 01910.Na Remaining ([1]; 25% PEG, 14 D): 32.03% | % ON 01910.Na Remaining ([1]; 25% PEG, 28 D): 29.80% | % ON 01910.Na Remaining ([1]; 50% PEG, 0 D): 100.00% | % ON 01910.Na Remaining ([1]; 50% PEG, 0.25 D): 100.32% | % ON 01910.Na Remaining ([1]; 50% PEG, 2 D): 94.76% | % ON 01910.Na Remaining ([1]; 50% PEG, 7 D): 86.06% | % ON 01910.Na Remaining ([1]; 50% PEG, 14 D): 75.80% | % ON 01910.Na Remaining ([1]; 50% PEG, 28 D): 68.73% | stability on addition of propylene glycol or PEG 400 to an aqueous formulation ([1]; accelerated studies at 75 and 90° C.): drastically improved | dose that can be safely administered [2]: ≥ 2080 mg | stability on adjusting the pH of the aqueous medium above 8 [3]: further improved | % ON 01910.Na Remaining ([3]; PEG:Buffer, After 72 hours): 94.22% | % ON 01910.Na Remaining ([3]; PEG:Buffer, Control): 100.00% | % ON 01910.Na Remaining ([3]; PEG:Water, After 72 hours): 22.28% | % ON 01910.Na Remaining ([3]; PEG:Water, Control): 100.00% | % ON 01910.Na Remaining ([3]; PG:Buffer, After 72 hours): 79.62% | % ON 01910.Na Remaining ([3]; PG:Buffer, Control): 100.00% | % ON 01910.Na Remaining ([3]; PG:Water, After 72 hours): 15.79% | % ON 01910.Na Remaining ([3]; PG:Water, Control): 100.00% | % ON 01910.Na Remaining ([3]; PH 10 buffer, After 72 hours): 50.18% | % ON 01910.Na Remaining ([3]; PH 10 buffer, Control): 100.00% | % ON 01910.Na Remaining ([3]; Water, After 72 hours): 5.36% | % ON 01910.Na Remaining ([3]; Water, Control): 100.00% | stability in IV infusion bags [4]: stable over 24 hours | solubility [5]: very soluble | expected degradation over a two year period [6]: not be any Significant Degradation | long term stability in the current formulation [6]: Extremely Stable
